Read-outs that look alike come from different tables or passages of the source.
Columns and labels:
[1] = test system: Mycobacterium avium subsp. paratuberculosis CIT03; assay: antimycobacterial MIC, MB broth, alamarBlue; type: cell-based; settings: 264 h, read-out: MIC MAP
Experimental: The Mycobacterium avium subsp. paratuberculosis CIT03 strain was grown in the Middlebrook (MB) broth, supplemented with the Oleic-Albumin-Dextrose-Catalase Supplement (OADC, Becton Dickinson, Oxford, UK) and the mycobactin J (2 μg/mL). The commercially available siderophore mycobactin J reduced the incubation period of M. avium subsp. paratuberculosis in a complex medium when compared to the medium containing the mycobactin P as a growth factor.
The identification of the isolate was performed using biochemical and molecular protocols. At a log phase growth, a culture sample (10 mL) was centrifuged at 15,000 rpm/20 min using a bench top centrifuge (Model CR 4-12, Jouan Inc., London, UK). Following removal of the supernatant, the pellet was washed in fresh Middlebrook 7H9GC broth and re-suspended in fresh supplemented MB broth (10 mL). The turbidity was adjusted to match the McFarland standard No. 1 containing approximately 3.0 × 10^8 Colony Forming Units (CFU) with the MB broth. Further 1:20 dilution of the culture was performed in the MB broth. The susceptibility of given mycobacterial species was investigated in a 96-well plate format. In those experiments, sterile deionised water (300 μL) was added to all outer-perimeter wells of the plates to minimize an evaporation of the medium in the test wells during the incubation process. Each evaluated compound (100 μL) was incubated with the mycobacterial species (100 μL). The dilutions of a particular compound were prepared in triplicate. For all inspected derivatives, final concentrations ranged from 1000 μg/mL to 60 μg/mL. All compounds were prepared in dimethyl sulfoxide (DMSO; Sigma-Aldrich, Irvine, UK) and subsequent dilutions were made in the supplemented MB broth. The plates were sealed with a parafilm and incubated at 37 °C for 11 days. Following the incubation, a 10% addition of a water‑soluble dye, the alamarBlue reagent (AbD Serotec, Kidlington, UK), was mixed into each well. Absorbance readings at 570 nm and 600 nm were taken, initially for background subtraction and after 24 h re-incubation. The subtraction is necessary for strongly coloured compounds, where the colour may interfere with the interpretation of any colour change. For non-interfering compounds, a blue colour in a well was interpreted as an absence of a growth and a pink colour was scored as a growth.
The minimum inhibitory concentration (MIC) was defined as the lowest concentration of the compound at which no visible bacterial growth was observed. In other words, the MIC was the lowest concentration that prevented a visual colour change from blue to pink. The MIC value has been routinely and widely used in bacterial assays and it has been a standard detection limit according to the Clinical and Laboratory Standards Institute. The clinically used antimycobacterial drugs INH and RIF were applied as the standards.

[2] = test system: M. smegmatis ATCC 700084; assay: antimycobacterial MIC, broth dilution micromethod; type: cell-based; settings: Mycolicibacterium smegmatis, ATCC700084, 72 h, 3 days at 37 °C
[3] = test system: M. kansasii DSM 44162; assay: antimycobacterial MIC, broth dilution micromethod; type: cell-based; settings: Mycobacterium kansasii, DSM44162, 168 h, 7 days at 37 °C
[4] = test system: M. marinum CAMP 5644; assay: antimycobacterial MIC, broth dilution micromethod; type: cell-based; settings: Mycobacterium marinum, CAMP5644, 504 h, 21 days at 28 °C
[5] = test system: Enterococcus faecalis ATCC 29212; assay: antibacterial MIC, microtitration broth method; type: cell-based; settings: 37 °C
Experimental: (§1) Prior to the testing, each strain was transferred into a nutrient agar (Oxoid Limited, Basingstoke, UK), which was enriched with 5% defibrinated bovine blood.
(§2) The MICs were determined by the microtitration broth method in the cation-adjusted Mueller-Hinton broth (Becton Dickinson, Oxford, UK) according to an international interdisciplinary Clinical Laboratory Standard Institute guidelines.
(§3) The checkerboard was inoculated by the bacterial inocula, which were prepared in a phosphate buffered saline solution with the pH = 7.2–7.3 to simulate physiological pH. The final concentration of each inoculum in the final volume of 100 μL in the wells was approximately 7.5 × 10^6 CFU/mL. Drug-free controls, sterility controls and the controls consisted of the broth with DMSO were included. The determination of the results was performed visually after 24 h of static incubation in the darkness at 37 °C in an aerobic atmosphere.
(§4) To ensure reproducibility, each antibacterial MIC assay was performed triplicate on separate occasions.

[6] = test system: Escherichia coli ATCC 25922; assay: antibacterial MIC, microtitration broth method; type: cell-based; settings: 37 °C
Experimental: as §1, §2, §3, §4

[7] = test system: Staphylococcus aureus ATCC 29213; assay: antibacterial MIC, microtitration broth method; type: cell-based; settings: 37 °C
Experimental: as §1, §2, §3, §4

[8] = test system: methicillin-resistant Staphylococcus aureus 63718; assay: antibacterial MIC, microtitration broth method; type: cell-based; settings: MRSA, 37 °C
Experimental: as §1, §2, §3, §4

[9] = test system: Candida albicans CCM 8261; assay: candidacidal MIC, microdilution method; type: cell-based; settings: Candida albicans, CCM8261, 48 h, 37 °C
Experimental: (§5) In order to provide a look into the potential usefulness of the derivatives 5a–l as the candidates for a development of anti-yeast (candidacidal) agents, they were in vitro tested against Candida albicans CCM 8261 (CA 8261), C. krusei CCM 8271 (CK 8271) and C. parapsilosis CCM 8260 (CP 8260). The yeasts were obtained from the Czech Collection of Microorganisms (Masaryk University, Faculty of Science, Brno, Czech Republic). They were grown and kept on Sabouraud agar (Oxoid Limited, Basingstoke, UK).
(§6) For the screening, the microdilution method according to the Antimicrobial Susceptibility Testing Protocols was applied. The inoculum was prepared from the cultures grown on Sabouraud agar. With the sterile solution of NaCl, the inoculum was prepared to the 0.5 McFarland units using the Densi-La-Meter densitometer (LIAP, Riga, Latvia) and diluted a thousand‑fold with the Roswell Park Memorial Institute (RPMI) 1640 medium (Sigma-Aldrich, Darmstadt, Germany). Prepared suspension was used for an inoculation of microtitre plates. Final concentration in wells ranged from 5.0 × 10^2 CFU/mL to 2.5 × 10^3 CFU/mL. […] For the determination of the MICs, the stock solutions of all the tested compounds were diluted in the microtitre checkerboard to the final concentration varying from 128 μg/mL to 0.125 μg/mL. Drug-free control, sterility control and the control consisted of a medium and DMSO alone were included. Inoculated microtitre plates were incubated for 48 h in the darkness at 37 °C in an aerobic atmosphere. The results were estimated against static light.
(§7) The MIC was defined as the lowest concentration of the tested compound at which no visible growth was observed. To ensure reproducibility of the results, each candidacidal MIC assay was performed triplicate on separate occasions. It was important to note that all the MICs from the in vitro antimicrobial screening were expressed in μg/mL units and were available in Tables S3 and S4 (Supplementary Materials).

[10] = test system: Candida krusei CCM 8271; assay: candidacidal MIC, microdilution method; type: cell-based; settings: Pichia kudriavzevii, CCM8271, 48 h, 37 °C
Experimental: as §5, §6, §7

[11] = test system: Candida parapsilosis CCM 8260; assay: candidacidal MIC, microdilution method; type: cell-based; settings: Lodderomyces parapsilosis, CCM8260, 48 h, 37 °C
Experimental: as §5, §6, §7

[12] = parameters: method as in PMID 16209439, PMID 16209439; settings: potentiometric titration; cited from earlier work
[13] = parameters: method as in PMID 16209439, PMID 16209439, doi:10.2478/s11696-006-0007-y; settings: octan-1-ol/phosphate buffer (pH = 7.4); cited from earlier work

| Compound | MIC ([1]; 37 °C, 11 days) | MIC [1] | MIC [2] | MIC ([2]; Table S3) | MIC [3] | MIC ([3]; Table S3) | MIC [4] | MIC ([4]; Table S3) | MIC ([5]; ATCC29212, 24 h) | MIC ([5]; ATCC29212, Table S4, 24 h) | MIC ([6]; ATCC25922, 24 h) | MIC ([6]; ATCC25922, Table S4, 24 h) | MIC ([7]; ATCC29213, 24 h) | MIC ([7]; ATCC29213, Table S4, 24 h) | MIC ([8]; 24 h) | MIC ([8]; Table S4, 24 h) | MIC [9] | MIC ([9]; Table S4) | MIC [10] | MIC ([10]; Table S4) | other results |
| --- | --- | --- | --- | --- | --- | --- | --- | --- | --- | --- | --- | --- | --- | --- | --- | --- | --- | --- | --- | --- | --- |
| COc1cccc(NC(=O)OCC(O)CN2CCN(c3cccc(C(F)(F)F)c3)CC2)c1 (stereo not drawn) [Compound 5c] | 1020 µM | 500 µg/mL | 523 µM | 256 µg/mL | 131 µM | 64 µg/mL | 131 µM | 64 µg/mL | > 523 µM | > 256 µg/mL | > 523 µM | > 256 µg/mL | > 523 µM | > 256 µg/mL | > 523 µM | > 256 µg/mL | > 261 µM | > 128 µg/mL | > 261 µM | > 128 µg/mL | MIC [11]: > 261 µM; MIC ([11]; Table S4): > 128 µg/mL; pKa [12]: 5.73; log Pexp [13]: 3.61 |
| CCOc1cccc(NC(=O)OCC(O)CN2CCN(c3cccc(C(F)(F)F)c3)CC2)c1.Cl (stereo not drawn) [Compound 5d, 1-[3-(3-ethoxyphenylcarbamoyl)oxy-2-hydroxypropyl]-4-(3-trifluoromethylphenyl)piperazin-1-ium chloride] | 1980 µM | 1000 µg/mL | 127 µM | 64 µg/mL | 31.8 µM | 16 µg/mL | 127 µM | 64 µg/mL | > 508 µM | > 256 µg/mL | > 508 µM | > 256 µg/mL | > 508 µM | > 256 µg/mL | > 508 µM | > 256 µg/mL | > 254 µM | > 128 µg/mL | > 254 µM | > 128 µg/mL | MIC [11]: > 254 µM; MIC ([11]; Table S4): > 128 µg/mL; pKa [12]: 5.35; log Pexp [13]: 3.72 |
| COc1ccc(NC(=O)OCC(O)CN2CCN(c3cccc(C(F)(F)F)c3)CC2)cc1 (stereo not drawn) [Compound 5e, 1-{2-hydroxy-3-(4-methoxyphenylcarbamoyl)oxy)propyl}-4-(3-trifluoromethylphenyl)piperazin-1-ium chloride] | 1020 µM | 500 µg/mL | 523 µM | 256 µg/mL | 65.3 µM | 32 µg/mL | 65.3 µM | 32 µg/mL | > 523 µM | > 256 µg/mL | > 523 µM | > 256 µg/mL | > 523 µM | > 256 µg/mL | > 523 µM | > 256 µg/mL | > 261 µM | > 128 µg/mL | > 261 µM | > 128 µg/mL | MIC [11]: > 261 µM; MIC ([11]; Table S4): > 128 µg/mL; pKa [12]: 5.66; log Pexp [13]: 3.60 |
| CCOc1ccc(NC(=O)OCC(O)CN2CCN(c3cccc(C(F)(F)F)c3)CC2)cc1 (stereo not drawn) [Compound 5f] | 992 µM | 500 µg/mL | 508 µM | 256 µg/mL | 508 µM | 256 µg/mL | 254 µM | 128 µg/mL | > 508 µM | > 256 µg/mL | > 508 µM | > 256 µg/mL | > 508 µM | > 256 µg/mL | > 508 µM | > 256 µg/mL | > 254 µM | > 128 µg/mL | > 254 µM | > 128 µg/mL | MIC [11]: > 254 µM; MIC ([11]; Table S4): > 128 µg/mL; pKa [12]: 5.69; log Pexp [13]: 3.71 |
